In patent publication US12465611B2, “Compositions and methods for treatment of depression and other disorders” (priority 2019, dated 2025):
Several values for one entry are separate records, joined by “and”; a condition that tells them apart may be missing. Equal entries are not always repeated. Where two headings read alike, the source gives them in different places.

How the values were obtained:
[1] = Plasma concentration and pharmacokinetics of MAOIs and NRIs; settings: for Average Concentration: TCP plasma
From the text: As used herein, the phrase “controlled-release formulation time period” refers to the period of time during which an active agent in the formulation is released in a delayed but controlled fashion upon administration to a subject. An objective of controlled release is to avoid bioavailability peaks and valleys and achieve a prolonged time period where concentration of the formulation fluctuates in a narrow range. Another key objective is to lengthen the time period where the drug concentration remains above a target minimum concentration required for desired effectiveness.
As used herein, the term “half-life period” refers to the time period in which the initial concentration of a drug in the plasma is reduced by 50%.
As used herein, the term “effective plasma concentration time period” refers to a period of time during which an active agent is present in the plasma at an effective plasma concentration.

[2] = system: tyramine pressor effect; settings: for Average SBP increase: 40 mg of tyramine taken with a meal, TCP 20 mg, phenelzine 60 mg, brofaromine 100 mg, moclobemide 450 mg, selegiline 20 mg; for SBP increase with 40 mg of in-meal tyramine: atomoxetine 40 mg, nortriptyline 125 mg
Method: Thus, wherein the MAOI and the NRI are each administered with an NRI dosage sufficient to result in a blood pressure increase of less than about 20 mm HG in reaction to consuming about 40 mg or less, about 35 mg or less, about 30 mg or less, about 25 mg or less, about 20 mg or less, about 15 mg or less, about 10 mg or less, or about 5 mg or less of tyramine within the effective plasma concentration time period.
This study is designed to characterize the effects of PHZ on the responses to tyramine throughout the dosing interval when given alone, and with an inhibitor of NET to mitigate the potentiation of the tyramine pressor effect by PHZ.

[3] = TCP postural hypotension: SBP drop from sitting to standing position; settings: for Average Postural SBP Drop: sitting to standing
[4] = system: tyramine pressor effect; settings: cited from earlier work
[5] = cited from earlier work
[6] = system: tyramine pressor effect; settings: with TCP; Pare et al., 1982; cited from earlier work
[7] = system: tyramine pressor effect; settings: cited from earlier work; remark: listed apart in the source
[8] = system: rat heart; settings: given before TCP; Dostert et al., 1994; cited from earlier work
[9] = oral tyramine with food; VanDenBerg et al., 2003; cited from earlier work

SMILES: N[C@@H]1C[C@H]1c1ccccc1 (racemic) [TCP, tranylcypromine]
- time plasma concentration stays above minimum threshold of 25 ng/ml ([1]; 40 mg TCP dose, not extended release): 9 h
- average Cmax ([1]; TCP dose of 40 mg/d, immediate release formulation): approximately 230 ng/ml
- Average Concentration ([1]; 1 to 5 hours since dosing): 59.8 ng/mL
- Average Concentration ([1]; 7 to 10 hours since dosing): 17.5 ng/mL
- Average SBP increase [2]: 50.0 mm HG
- SBP increase with 40 mg of in-meal tyramine ([2]; TCP without or with NRI: desipramine 100 mg): 50 mm HG
- highest drop in postural systolic blood pressure ([3]; immediate release formulation): approximately 25 mm HG
- Average Postural SBP Drop ([3]; 1 to 5 hours since dosing): 9.6 mm HG
- Average Postural SBP Drop ([3]; 7 to 10 hours since dosing): 3.4 mm HG

SMILES: NNCCc1ccccc1 [Phenelzine, phenelzine]
- reduction of fasting tyramine dose giving 30 mm Hg SBP increase ([4]; PHZ 60 mg, Bieck and Antonin, 1989): 13 fold
- fasting tyramine dose which results in a 30 mm Hg increase in systolic blood pressure ([4]; PHZ 60 mg, without drug 437 mg, Bieck and Antonin, 1989): 33 mg
- half-life ([5]; plasma, elimination): approximately 11.6 hours
- SBP increase with 40 mg of in-meal tyramine ([2]; PHZ without or with NRI: desipramine 100 mg): 12.1 mm HG

SMILES: C#CCN(C)[C@H](C)Cc1ccccc1 [Selegiline]
- half-life ([5]; plasma, elimination): approximately 10 hours
- Average SBP increase [2]: 4.2 mm HG

SMILES: CN(C)CCC=C1c2ccccc2CCc2ccccc21 [amitriptyline]
- effect on sensitivity to intravenous tyramine [6]: reversed the increase in sensitivity to intravenous tyramine associated with administration of TCP

SMILES: CNCC[C@@H](Oc1ccccc1C)c1ccccc1 [atomoxetine]
- half-life ([5]; among extensive metabolizers): approximately 5 hours
- half-life ([5]; among slow metabolizers): over 10 hours

SMILES: CNCCCN1c2ccccc2CCc2ccccc21 [desipramine]
- reduction of sensitivity to TYR, average factor (increase of TYR dose which increases systolic blood pressure 30 mm Hg) ([4]; 100 mg dose of desipramine, Chalon et al. 2003): 5 fold
- half-life ([5]; plasma, elimination): 12 to 30 h and 21 h

SMILES: CNCCC=C1c2ccccc2CCc2ccccc21 [nortriptyline]
- relationship between Tyramine-relative response and blood concentration ([7]; FIG. 2): tyramine tolerance increases as the blood concentration of nortriptyline increases
- relation of tyramine sensitivity to plasma concentration ([7]; depressed patients treated with amitriptyline, Ghose and Coppen, 1977): decrease in tyramine sensitivity correlated with plasma concentrations of nortriptyline
- Tyramine pressor effect ([7]; in the presence of the NRI, Freyschuss et al., 1970): much more reduced

SMILES: CNCCCC1c2ccccc2C=Cc2ccccc21 [protriptyline]
- half-life ([5]; plasma, elimination): 60 to 90 h

SMILES: CCOc1ccccc1OC(c1ccccc1)C1CNCCO1 (centres unmarked) [reboxetine]
- effect on labelled tyramine levels in rat heart [8]: block the increased levels of labelled tyramine which accumulate in rat heart when given before TCP
- half-life ([5]; plasma, elimination): 13 h

SMILES: NCCc1ccc(O)cc1 [tyramine]
- in-meal tyramine dose producing 30 mm SBP increase relative to fasting oral dose ([4]; Gillman, 2011): 2 to 4 times
- reduction in AUC with food, average [9]: 53%
- reduction of Cmax with food, on average [9]: 72%
